Experimental data: patent publication US9815819B2, “Complement pathway modulators and uses thereof” (priority 2012, dated 2017)

Molecular target: Recombinant human factor D (Homo sapiens (Human), UniProt P00746)
Test: Human Complement Factor D Assay: Method 1
Assay type: biochemical
Conditions: Factor D inhibition, Method 1: 10 nM factor D, 1 hour incubation with compound at room temperature, substrate Z-Lys-thiobenzyl, fluorescence readout; read-out: IC50
Procedure: Recombinant human factor D (expressed in E. coli and purified using standard methods) at 10 nM concentration is incubated with test compound at various concentrations for 1 hour at room temperature in 0.1 M Hepes buffer, pH 7.5, containing 1 mM MgCl2, 1 M NaCl and 0.05% CHAPS. […] IC50 values are calculated from percentage of inhibition of complement factor D-activity as a function of test compound concentration.

Sequence of Recombinant human factor D (P00746 26-253): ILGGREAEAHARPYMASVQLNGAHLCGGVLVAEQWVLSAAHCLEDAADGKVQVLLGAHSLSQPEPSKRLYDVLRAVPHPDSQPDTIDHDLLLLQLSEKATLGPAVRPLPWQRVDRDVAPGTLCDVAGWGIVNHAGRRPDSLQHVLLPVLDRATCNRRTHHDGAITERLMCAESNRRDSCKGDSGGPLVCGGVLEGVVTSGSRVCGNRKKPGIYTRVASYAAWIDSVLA

IC50	SMILES
309 nM	NC(=O)c1nn(CC(=O)N2C[C@H](F)C[C@H]2C(=O)N[C@@H]2C[C@H]2c2ccc(Cl)cc2)c2cnccc12 [Example 72, 1-(2-{(2S,4R)-2-[(1R,2S)-2-(4-Chloro-phenyl)-cyclopropylcarbamoyl]-4-fluoro-pyrrolidin-1-yl}-2-oxo-ethyl)-1H-pyrazolo[3,4-c]pyridine-3-carboxylic acid amide]
45 nM	Cc1cc2c(C(N)=O)nn(CC(=O)N3[C@@H]4C[C@@H]4C[C@H]3C(=O)N[C@@H]3C[C@H]3c3ccccc3Cl)c2cn1 [Example 73, 1-(2-{(1R,3S,5R)-3-[(1R,2S)-2-(2-Chloro-phenyl)-cyclopropylcarbamoyl]-2-aza-bicyclo[3.1.0]hex-2-yl}-2-oxo-ethyl)-5-methyl-1H-pyrazolo[3,4-c]pyridine-3-carboxylic acid amide]

SMILES	IC50
CC(=O)c1nn(CC(=O)N2[C@@H]3C[C@@H]3C[C@H]2C(=O)N[C@@H]2C[C@H]2c2ccccc2F)c2cc(C(=O)O)ccc12 [Example 87, 3-Acetyl-1-(2-{(1R,3S,5R)-3-[(1R,2S)-2-(2-fluoro-phenyl)-cyclopropylcarbamoyl]-2-aza-bicyclo[3.1.0]hex-2-yl}-2-oxo-ethyl)-1H-indazole-6-carboxylic acid]	46 nM
